Experiments:
[1] = test system: Dahl salt-sensitive (S) rats; settings: exogenous 25-OHD; S rats fed a high salt diet; cited from earlier work
[2] = rat, in vivo

increase of plasma 25-OHD [2]: successful in S rats fed low
SMILES: C=C1CC[C@H](O)C/C1=C/C=C1\CCC[C@]2(C)[C@@H]([C@H](C)CCCC(C)(C)O)CC[C@@H]12 [25-OHD, 25-hydroxycholecalciferol]
attenuation of the blood pressure increase [1]: will not attenuate the blood pressure increase
